From patent publication US20210062149A1, “SINGLE B-CELL CULTIVATION METHOD” (Hoffmann-La Roche Inc., priority 2010, published 2021)

Columns and labels:
rabbit B-cells = assay: rbIgG ELISA of cell culture supernatants of rabbit B-cells co-cultivated with EL-4 B5 feeder cells; assay type: cell-based; settings: for B-cell growth: SAC added to feeder mix
Experimental: (§1) a) The co-cultivation was performed in 96-well multi well plates with round bottom. A basis solution comprising EL-4 B5 cells (1.6×10^6 cells/15.2 ml) and cytokines in EL-4 B5 medium was prepared. 200 μl of the basis solution was added to each well of the multi well plate. To each well a single B-cell was added by fluorescence activated cell sorting. After the addition of the B-cells the plate was centrifuged for 5 min. at 300×g. The plate is incubated for seven days at 37° C.
[…] B cell culture supernatants were removed for screening and the cells harvested immediately for variable region gene cloning or frozen at −80° C. in 100 μl RLT buffer (Qiagen, Hilden, Germany).
(§2) The 96-well multi well plate in which the co-cultivation was performed was centrifuged after seven days of co-cultivation at 300×g for 5 min. 150 μl supernatant was removed and diluted at a ratio of 2:1 with PBS in a second 96-well multi well plate.
The ELISA was performed as outlined in Example 17.
The antibody was used at a concentration of 50 ng/ml. If the OD was or exceeded 1 after an incubation time of 5 min. a dilution series of from 0.8 to 108 ng/ml IgG was tested.
Antibodies produced by single deposited and co-cultivated B-cells or from B-cells obtained from an immunized experimental animal can be characterized with respect to specific antigen binding. The ELISA was performed at room temperature and the ELISA-solution was incubated between the individual steps on a shaker at 20×g. In the first step the antigen was bound to the wells of a 96-well multi well plate. If the antigen was a protein it had been diluted in coating buffer and applied directly to the plate. Peptide antigens were bound via the specific binding pair biotin/streptavidin. The wells of the multi well plate can be already coated with soluble CroteinC (CrC) by the manufacturer. If not, the wells were incubated after the immobilization of the antigen with 200 μl blocking buffer. After the incubation with 100 μl antigen solution per well (pre-coated multi well plate) or 200 μl blocking buffer, respectively, non-bound antigen or blocking buffer was removed by washing with wash buffer. The diluted B-cell supernatants were added in a volume of 100 μl per well and incubated. After the incubation the wells were washed. Afterwards the detection antibody was added in a volume of 100 μl per well. The antibody can be either conjugated to horseradish peroxidase or labeled with biotin. The detection antibody was determined with a streptavidin-horseradish peroxidase conjugate. After the incubation the multi well plate was washed and afterwards 50 μl of a substrate solution containing 3,3′,5,5′ tetramethyl benzidine (TMB) were added per well and incubated for a period as given in Table X. The enzymatic reaction was stopped by the addition of 50 μl sulfuric acid and the optical density was determined at 450 nm and 680 nm with a photometer (Rainbow Thermo ELISA Reader) and the Xread plus-software.

hamster B-cells = assay: Co-cultivation of B-cells with feeder cells and feeder mix additives; assay type: cell-based
Experimental: as §1, §2

murine B-cells = assay: as above; assay type: cell-based, mouse
Experimental: as §1, §2

[1] = PAP-1 0.01 μM, in the presence of TSN and SAC
[2] = PAP-1 0.1 μM, in the presence of TSN and SAC
[3] = PAP-1 1 μM, in the presence of TSN and SAC
[4] = PAP-1 10 μM, in the presence of TSN and SAC
[5] = addition of PAP-1 to co-cultivation
[6] = SAC 1:20000, Table 8a third block (with w/o control)
[7] = SAC 1:50000, Table 8a third block
[8] = SAC 1:100000, Table 8a third block
[9] = SAC 1:150000, Table 8a third block
[10] = TSN + SAC, SAC 1:5000, Table 8a second block
[11] = TSN + SAC, SAC 1:10000, Table 8a second block
[12] = TSN + SAC, SAC 1:20000, Table 8a second block
[13] = TSN + SAC, SAC 1:40000, Table 8a second block

O=c1ccc2c(OCCCCOc3ccccc3)c3ccoc3cc2o1 [PAP-1, 5-(4-phenoxybutoxy) psoralene, reference compound] was tested, and the “rbIgG conc. of all huCk^+ wells [average ng/ml]” value (“rbIgG conc. of all huCk^+ wells” below) (rabbit B-cells; [1]) was 289.0 ng/mL, the “rbIgG^+ wells [% total wells]” value (rabbit B-cells; [1]) was 29 % total wells and the “rbIgG^+ wells [n]” value (rabbit B-cells; [1]) was 72 n. For the same molecule, the “rbIgG conc. of all huCk^+ wells” value (rabbit B-cells; [2]) was 452.9 ng/mL, the “rbIgG^+ wells [% total wells]” value (rabbit B-cells; [2]) was 27 % total wells and the “rbIgG^+ wells [n]” value (rabbit B-cells; [2]) was 69 n. The “rbIgG conc. of all huCk^+ wells” value (rabbit B-cells; [3]) was 579.5 ng/mL, the “rbIgG^+ wells [% total wells]” value (rabbit B-cells; [3]) was 37 % total wells and the “rbIgG^+ wells [n]” value (rabbit B-cells; [3]) was 93 n. The “rbIgG conc. of all huCk^+ wells” value (rabbit B-cells; [4]) was 890.7 ng/mL, the “rbIgG^+ wells [% total wells]” value (rabbit B-cells; [4]) was 32 % total wells and the “rbIgG^+ wells [n]” value (rabbit B-cells; [4]) was 80 n. For the same molecule, the “effect on number of B-cell clones” value (rabbit B-cells; [5]) was “without decreasing the number of B-cell clones” and the “effect on rbIgG secretion of B-cells” value (rabbit B-cells; [5]) was “increases the rbIgG secretion of B-cells in a concentration dependent manner”.

In the case of “IL-6: interleukin-6, cytokine additive of the feeder mix”, the IgG-concentration (hamster B-cells; addition of IL-6 to the feeder mix, hamster-B-cells) is reported as “increased IgG-concentration” and the “number of IgG^+-wells/cell clones” value (murine B-cells; addition of IL-6 to the feeder mix, murine-B-cells) is reported as “increased number of IgG^+-wells/cell clones”.

With “Staphylococcus aureus strain Cowans cells [SAC]” the “rbIgG conc. of all rbIgG^+ wells [Ø ng/ml]” value (rabbit B-cells; [6]) was 665 ng/mL, the “rbIgG^+ wells [% total wells]” value (rabbit B-cells; [6]) was 30 % total wells and the “rbIgG^+ wells [n]” value (rabbit B-cells; [6]) was 75 n. For the same molecule, the “rbIgG conc. of all rbIgG^+ wells [Ø ng/ml]” value (rabbit B-cells; [7]) was 742 ng/mL, the “rbIgG^+ wells [% total wells]” value (rabbit B-cells; [7]) was 37 % total wells and the “rbIgG^+ wells [n]” value (rabbit B-cells; [7]) was 93 n. For the same molecule, the “rbIgG conc. of all rbIgG^+ wells [Ø ng/ml]” value (rabbit B-cells; [8]) was 774 ng/mL, the “rbIgG^+ wells [% total wells]” value (rabbit B-cells; [8]) was 37 % total wells and the “rbIgG^+ wells [n]” value (rabbit B-cells; [8]) was 92 n. For the same molecule, the “rbIgG conc. of all rbIgG^+ wells [Ø ng/ml]” value (rabbit B-cells; [9]) was 668 ng/mL, the “rbIgG^+ wells [% total wells]” value (rabbit B-cells; [9]) was 29 % total wells and the “rbIgG^+ wells [n]” value (rabbit B-cells; [9]) was 72 n. The B-cell growth (rabbit B-cells; PBL (B cells and endogenous T cells) mixture for co-cultivation) was “B-cell growth was inhibited”, the B-cell growth (rabbit B-cells; single deposited B-cells) was “only single deposited B-cells have a benefit in growth” and the “number of IgG^+-wells/cell clones” value (rabbit B-cells; SAC ratio of from 1:20000 to 1:150000) was “increased number of IgG^+-wells/cell clones”. The “number of IgG^+-wells/cell clones” value (rabbit B-cells; SAC ratio of from 1:50000 to 1:100000) was “highest numbers”, the “rbIgG conc. of all rbIgG^+ wells [Ø ng/ml]” value (rabbit B-cells; [10]) was 149.0 ng/mL and the “rbIgG^+ wells [% total wells]” value (rabbit B-cells; [10]) was 15 % total wells. For the same molecule, the “rbIgG^+ wells [n]” value (rabbit B-cells; [10]) was 13 n, the “rbIgG conc. of all rbIgG^+ wells [Ø ng/ml]” value (rabbit B-cells; [11]) was 159.1 ng/mL and the “rbIgG^+ wells [% total wells]” value (rabbit B-cells; [11]) was 18 % total wells. For the same molecule, the “rbIgG^+ wells [n]” value (rabbit B-cells; [11]) was 15 n, the “rbIgG conc. of all rbIgG^+ wells [Ø ng/ml]” value (rabbit B-cells; [12]) was 233.7 ng/mL and the “rbIgG^+ wells [% total wells]” value (rabbit B-cells; [12]) was 32 % total wells. The “rbIgG^+ wells [n]” value (rabbit B-cells; [12]) was 27 n, the “rbIgG conc. of all rbIgG^+ wells [Ø ng/ml]” value (rabbit B-cells; [13]) was 197.2 ng/mL and the “rbIgG^+ wells [% total wells]” value (rabbit B-cells; [13]) was 36 % total wells. The “rbIgG^+ wells [n]” value (rabbit B-cells; [13]) was 30 n and the “number of antibody secreting B-cells and average IgG-concentration in the supernatant after co-cultivation” value (rabbit B-cells; addition of SAC, single SAC lot) was “can be increased”.

B1: IL-4: interleukin-4, cytokine additive of the feeder mix (protein, UniProt P07750 21-140, looked up)
Interleukin-4: HIHGCDKNHLREIIGILNEVTGEGTPCTEMDVPNVLTATKNTTESELVCRASKVLRIFYLKHGKTPCLKKNSSVLMELQRLFRAFRCLDSSISCTMNESKSTSLKDFLESLKSIMQMDYS
With B1 the “number of IgG^+-wells/cell clones and IgG-concentration in the supernatant” value (hamster B-cells; addition of IL-4 to the feeder mix, hamster B-cells) was “increases the number of IgG^+-wells/cell clones as well as the IgG-concentration in the supernatant” and the “number of IgG^+-wells/cell clones and IgG-concentration in the supernatant” value (murine B-cells; addition of IL-4 to the feeder mix, murine B-cells) was “increases the number of IgG^+-wells/cell clones as well as the IgG-concentration in the supernatant”.
